These results are taken from PubChem BioAssay (NCI).

Test systems include COLO 205 colon; DU-145 prostate; M14 melanoma; OVCAR-4 ovarian; TK-10 renal; UACC-257 melanoma; UO-31 renal; XF 498 CNS; HOP-18 NSCLC.
Holding throughout (assay): DTP human tumour cell line panel, 48 h

Values joined by “and” are separate entries in the source; they are usually repeats but may differ in a detail not shown here. Identical values can stand only once.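 48-hour exposure; five concentrations; linearly interpolated endpoints. GI50: concentration for 50% inhibition of growth. TGI denotes the concentration required for complete inhibition of growth.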

For orientation: GI50 means the concentration at which growth is held to half of that of the control. The term TGI denotes the concentration giving total growth inhibition. `CC(=O)N[C@H]1C=C[C@@H]2/C=C(C)/C=C/[C@@H](C)[C@H]([C@H](C)[C@H](O)[C@@H](C)NC(C)=O)OC(=O)/C=C/C=C(C)\C=C\[C@]2(C)C1`: the GI50 in the experiment with COLO 205 colon was 0.0173 µM and 0.0045 µM; with DU-145 prostate, 0.0294 µM and 0.00897 µM; in the experiment on M14 melanoma it was 0.00734 µM and 0.0045 µM; in the experiment on OVCAR-4 ovarian, 6.59 µM; with TK-10 renal it was 0.00805 µM; in the experiment on UO-31 renal it was 0.00414 µM and 0.0045 µM. Further, the TGI with COLO 205 colon is 4.65 µM and 5.38 µM; in the experiment with DU-145 prostate, 4.65 µM and > 45 µM; in the experiment with OVCAR-4 ovarian, more than 45 µM; with TK-10 renal, 44.6 µM; with UACC-257 melanoma, 4.65 µM and 16.5 µM; with UO-31 renal, 4.65 µM and 10.6 µM.
On to `CCN(CC)CCC(=O)NC1c2ccc(Cl)cc2Oc2c(C)cccc21` (stereo not drawn), for which the TGI in the experiment with COLO 205 colon was determined as 40.1 µM; in the experiment with DU-145 prostate it was 32.9 µM; in the experiment on M14 melanoma it was 31.3 µM; in the experiment on OVCAR-4 ovarian, 28.9 µM; in the experiment on TK-10 renal it was 27.9 µM; in the experiment with UACC-257 melanoma, 31.6 µM. Moreover, the TGI in the experiment with UO-31 renal worked out at 21.5 µM.
In the case of `C[C@]12C[C@H](c3ccccc3)Nc3ccccc3N1C(c1ccccc1)=NO2`, the TGI in the experiment on COLO 205 colon, in the experiment with DU-145 prostate, in the experiment with M14 melanoma, in the experiment on OVCAR-4 ovarian, in the experiment on TK-10 renal and with UACC-257 melanoma was more than 100 µM in each case. The TGI with UO-31 renal was more than 100 µM.
In the case of `COc1ccc([N+]2=NC(c3ccc([N+](=O)[O-])cc3)=NN(c3ccccc3)C2)cc1`, the TGI with COLO 205 colon was more than 100 µM; in the experiment on OVCAR-4 ovarian, 75.5 µM and > 100 µM; with TK-10 renal, more than 100 µM; in the experiment on UACC-257 melanoma, more than 100 µM; with UO-31 renal it was more than 100 µM; in the experiment with XF 498 CNS, more than 100 µM.
As to `CC(=O)C(=[N+]=[N-])C(=O)NCC#N`, the TGI with COLO 205 colon, with DU-145 prostate, with M14 melanoma, in the experiment on OVCAR-4 ovarian, with TK-10 renal and with UACC-257 melanoma was more than 10 µM in each case. This compound also returned a TGI in the experiment on UO-31 renal of more than 10 µM.
For `COc1cc(OC)c(/C=C/S(=O)(=O)Cc2cnc(OC)c(N)c2)c(OC)c1`, the GI50 in the experiment with COLO 205 colon was less than 0.0169 µM; in the experiment on DU-145 prostate it was less than 0.0202 µM; with M14 melanoma, less than 0.0173 µM; in the experiment on OVCAR-4 ovarian, less than 0.0456 µM; with TK-10 renal it was more than 100 µM; in the experiment on UACC-257 melanoma, more than 62 µM. For the same compound, the GI50 in the experiment on UO-31 renal was less than 0.0251 µM. The TGI was less than 0.0322 µM in the experiment on COLO 205 colon; more than 100 µM in the experiment with DU-145 prostate; more than 100 µM in the experiment with M14 melanoma; more than 100 µM in the experiment on OVCAR-4 ovarian; more than 100 µM in the experiment on TK-10 renal; more than 100 µM with UACC-257 melanoma. The TGI in the experiment on UO-31 renal is more than 100 µM.
For the compound `Cn1c([N+](=O)[O-])cnc1/C=C1\Oc2ccccc2C1=O`, the GI50 with COLO 205 colon was 0.543 µM; with DU-145 prostate, 0.307 µM; in the experiment on M14 melanoma, 0.32 µM; in the experiment on OVCAR-4 ovarian it was 2.05 µM; in the experiment on TK-10 renal, 1.29 µM; in the experiment on UACC-257 melanoma it was 0.682 µM. Besides, the GI50 with UO-31 renal was 0.309 µM. Besides, the TGI in the experiment with COLO 205 colon amounted to 3.02 µM; with DU-145 prostate, 1.15 µM; with M14 melanoma it was 2.51 µM; in the experiment with OVCAR-4 ovarian, 7.45 µM; in the experiment with TK-10 renal it was 7.77 µM; in the experiment with UACC-257 melanoma it was 2.84 µM. Moreover, the TGI in the experiment with UO-31 renal is 1.71 µM.
For `COc1ccc(/C=C2\CCC(CNc3cc(C)on3)C2=O)cc1` (stereo not drawn), the TGI with COLO 205 colon, in the experiment on DU-145 prostate, with M14 melanoma, with OVCAR-4 ovarian, in the experiment on TK-10 renal and with UACC-257 melanoma was more than 100 µM each time. This compound also had a TGI with UO-31 renal of more than 100 µM.
Regarding `O=C(/C=C/c1ccc(F)cc1)c1ccc(Cl)cc1Cl`, the GI50 in the experiment on COLO 205 colon was 44.2 µM; in the experiment on DU-145 prostate, 53.4 µM; in the experiment with M14 melanoma, more than 100 µM; in the experiment on OVCAR-4 ovarian, 82.9 µM; in the experiment with TK-10 renal, 86.8 µM; in the experiment on UACC-257 melanoma, 68.3 µM. Also, the GI50 in the experiment with UO-31 renal was 91.8 µM. Moreover, the TGI in the experiment with COLO 205 colon, in the experiment on DU-145 prostate, with M14 melanoma, in the experiment on OVCAR-4 ovarian, in the experiment with TK-10 renal and in the experiment on UACC-257 melanoma was more than 100 µM each time. Moreover, the TGI with UO-31 renal was more than 100 µM.
Consider `COc1cc(Nc2nccc(Nc3ccc4c(C)[nH]nc4c3)n2)cc(OC)c1OC`, for which the GI50 was 2.02 µM in the experiment on COLO 205 colon; 2.44 µM in the experiment on DU-145 prostate; 1.35 µM in the experiment with M14 melanoma; 4.04 µM in the experiment with OVCAR-4 ovarian; 0.908 µM with TK-10 renal; 1.22 µM with UACC-257 melanoma. Also, in the experiment with UO-31 renal, the GI50 is 0.842 µM. Moreover, the total growth inhibition concentration (TGI) is 5.65 µM in the experiment with COLO 205 colon; 7.43 µM with DU-145 prostate; 5.37 µM in the experiment on M14 melanoma; more than 20.7 µM with OVCAR-4 ovarian; 3.88 µM with TK-10 renal; 5.96 µM with UACC-257 melanoma. Also, in the experiment on UO-31 renal, the TGI was 5.19 µM.
For `O=c1c2c(nc3n1CCS3)[nH]c1ccccc12`, the GI50 in the experiment on COLO 205 colon, with DU-145 prostate, in the experiment with M14 melanoma, with OVCAR-4 ovarian, in the experiment with TK-10 renal and in the experiment on UACC-257 melanoma was more than 100 µM each time. The GI50 in the experiment on UO-31 renal is 94.3 µM. The TGI in the experiment with COLO 205 colon, in the experiment on DU-145 prostate, with M14 melanoma, in the experiment on OVCAR-4 ovarian, in the experiment on TK-10 renal and in the experiment on UACC-257 melanoma was more than 100 µM each time. This compound also yielded a TGI with UO-31 renal of more than 100 µM.
For the compound `COc1ccc(-c2onc(-c3ccc([N+](=O)[O-])cc3)c2C2=NCCN2)cc1`, the TGI with COLO 205 colon was more than 100 µM; in the experiment on HOP-18 NSCLC, more than 100 µM; in the experiment with M14 melanoma, more than 100 µM; in the experiment with OVCAR-4 ovarian it was more than 100 µM; in the experiment on UACC-257 melanoma it was 52.1 µM; in the experiment on UO-31 renal it was more than 100 µM. For the same compound, the total growth inhibition concentration (TGI) in the experiment with XF 498 CNS was more than 100 µM.
